Counter-ions that a name gives are not always drawn.
biological target: SHP2 (Homo sapiens (Human), UniProt Q06124); assay: SHP2 Allosteric Inhibition Assay (DiFMUP prompt fluorescence); assay type: biochemical; conditions: 0.25 nM SHP2 activated with 0.5 μM peptide IRS1_pY1172(dPEG8)pY1222; substrate DiFMUP 100 μM; 25° C.

IC50 | Compound
< 1 µM | CC1(CN)CCN(c2cnc3c(Sc4ccccc4)n[nH]c3n2)CC1 [Compound 7, (4-methyl-1-(3-(phenylthio)-1H-pyrazolo[3,4-b]pyrazin-6-yl)piperidin-4-yl)methanamine]
< 1 µM | CC1(N)CCN(c2cnc3c(Sc4cccnc4C(F)(F)F)n[nH]c3n2)CC1 [Compound 8, 4-methyl-1-(3-((2-(trifluoromethyl)pyridin-3-yl)thio)-1H-pyrazolo[3,4-b]pyrazin-6-yl)piperidin-4-amine]
< 1 µM | CC1(CN)CCN(c2cnc3c(Sc4ccccc4Cl)n[nH]c3n2)CC1 [Compound 9, (1-(3-((2-chlorophenyl)thio)-1H-pyrazolo[3,4-b]pyrazin-6-yl)-4-methylpiperidin-4-yl)methanamine]
< 1 µM | CC1(N)CCN(c2cnc3c(Sc4ccccc4C#N)n[nH]c3n2)CC1 [Compound 10, 2-((6-(4-amino-4-methylpiperidin-1-yl)-1H-pyrazolo[3,4-b]pyrazin-3-yl)thio)benzonitrile]
< 1 µM | CC1(CN)CCN(c2cnc3c(Nc4ccccc4Cl)n[nH]c3n2)CC1 [Compound 11, 6-(4-(aminomethyl)-4-methylpiperidin-1-yl)-N-(2-chlorophenyl)-1H-pyrazolo[3,4-b]pyrazin-3-amine]
< 1 µM | CC1(N)CCN(c2cnc3c(Sc4cccc(Cl)c4Cl)n[nH]c3n2)CC1 [Compound 13, 1-(3-((2,3-dichlorophenyl)thio)-1H-pyrazolo[3,4-b]pyrazin-6-yl)-4-methylpiperidin-4-amine]
≥ 10 µM | Cn1ccnc1Sc1n[nH]c2nc(N3CCC(C)(N)CC3)cnc12 [Compound 14, 4-methyl-1-(3-((1-methyl-1H-imidazol-2-yl)thio)-1H-pyrazolo[3,4-b]pyrazin-6-yl)piperidin-4-amine]
1 to 10 µM | CC1(CN)CCN(c2cnc3c(Cc4ccccc4)n[nH]c3n2)CC1 [Compound 15, (1-(3-benzyl-1H-pyrazolo[3,4-b]pyrazin-6-yl)-4-methylpiperidin-4-yl)methanamine]
< 1 µM | C=C(c1ccccc1)c1n[nH]c2nc(N3CCC(C)(CN)CC3)cnc12 [Compound 16, (4-methyl-1-(3-(1-phenylvinyl)-1H-pyrazolo[3,4-b]pyrazin-6-yl)piperidin-4-yl)methanamine]
1 to 10 µM | CC(c1ccccc1)c1n[nH]c2nc(N3CCC(C)(CN)CC3)cnc12 (centres unmarked) [Compound 17, (4-methyl-1-(3-(1-phenylethyl)-1H-pyrazolo[3,4-b]pyrazin-6-yl)piperidin-4-yl)methanamine]
1 to 10 µM | CC1(CN)CCN(c2cnc3c(C(=O)c4ccccc4)n[nH]c3n2)CC1 [Compound 18, (6-(4-(aminomethyl)-4-methylpiperidin-1-yl)-1H-pyrazolo[3,4-b]pyrazin-3-yl)(phenyl)methanone]
1 to 10 µM | CC1(CN)CCN(c2cnc3c(C(C)(O)c4ccccc4)n[nH]c3n2)CC1 (centres unmarked) [Compound 19, 1-(6-(4-(aminomethyl)-4-methylpiperidin-1-yl)-1H-pyrazolo[3,4-b]pyrazin-3-yl)-1-phenylethanol]
1 to 10 µM | CC1(N)CCN(c2cnc3c(-n4cnc5ccccc54)n[nH]c3n2)CC1 [Compound 20, 1-(3-(1H-benzo[d]imidazol-1-yl)-1H-pyrazolo[3,4-b]pyrazin-6-yl)-4-methylpiperidin-4-amine]
< 1 µM | CC1(N)CCN(c2cnc3c(N4CCc5ccccc54)n[nH]c3n2)CC1 [Compound 21]
1 to 10 µM | CC1(N)CCN(c2cnc3c(N4CCNc5ccccc54)n[nH]c3n2)CC1 [Compound 29]
< 1 µM | CC1(CN)CCN(c2cnc3c(N4CCCc5ccccc54)n[nH]c3n2)CC1 [Compound 33, (1-(3-(3,4-dihydroquinolin-1(2H)-yl)-1H-pyrazolo[3,4-b]pyrazin-6-yl)-4-methylpiperidin-4-yl)methanamine]
1 to 10 µM | C[C@@H]1CCc2ccccc2N1c1n[nH]c2nc(N3CCC(C)(N)CC3)cnc12 [Compound 36]
1 to 10 µM | CC1Cc2ccccc2N(c2n[nH]c3nc(N4CCC(C)(N)CC4)cnc23)C1 (centres unmarked) [Compound 38]
1 to 10 µM | CC1(CN)CCN(c2cnc3c(N4CCCc5cccnc54)n[nH]c3n2)CC1 [Compound 40]
1 to 10 µM | Cc1ccc2c(c1)N(c1n[nH]c3nc(N4CCC(C)(CN)CC4)cnc13)CCC2 [Compound 44]
< 1 µM | Cc1ccc2c(c1)CCCN2c1n[nH]c2nc(N3CCC(C)(CN)CC3)cnc12 [Compound 45]
< 1 µM | Cc1cccc2c1CCCN2c1n[nH]c2nc(N3CCC(C)(CN)CC3)cnc12 [Compound 46]
< 1 µM | CC1CCN(c2n[nH]c3nc(N4CCC(C)(CN)CC4)cnc23)c2ccccc21 (centres unmarked) [Compound 48]
< 1 µM | C[C@@H]1CCN(c2n[nH]c3nc(N4CCC(C)(CN)CC4)cnc23)c2ccccc21 [Compound 49, (R)-(4-methyl-1-(3-(4-methyl-3,4-dihydroquinolin-1(2H)-yl)-1H-pyrazolo[3,4-b]pyrazin-6-yl)piperidin-4-yl)methanamine]
< 1 µM | C[C@H]1CCN(c2n[nH]c3nc(N4CCC(C)(CN)CC4)cnc23)c2ccccc21 [Compound 50, (S)-(4-methyl-1-(3-(4-methyl-3,4-dihydroquinolin-1(2H)-yl)-1H-pyrazolo[3,4-b]pyrazin-6-yl)piperidin-4-yl)methanamine]
< 1 µM | CC1(CN)CCN(c2cnc3c(N4CCCc5nc(N)ccc54)n[nH]c3n2)CC1 [Compound 51, 5-(6-(4-(aminomethyl)-4-methylpiperidin-1-yl)-1H-pyrazolo[3,4-b]pyrazin-3-yl)-5,6,7,8-tetrahydro-1,5-naphthyridin-2-amine]
< 1 µM | CC1(CN)CCN(c2cnc3c(N4CCCc5c(F)cccc54)n[nH]c3n2)CC1 [Compound 52]
< 1 µM | COc1cccc2c1CCCN2c1n[nH]c2nc(N3CCC(C)(CN)CC3)cnc12 [Compound 57]
< 1 µM | CC1(CN)CCN(c2cnc3c(N4CCCc5cc(C(N)=O)ccc54)n[nH]c3n2)CC1 [Compound 58, 1-(6-(4-(aminomethyl)-4-methylpiperidin-1-yl)-1H-pyrazolo[3,4-b]pyrazin-3-yl)-1,2,3,4-tetrahydroquinoline-6-carboxamide]

Second part, the compound before the results:

Compound | IC50
Cn1nc(Sc2ccncc2)c2ncc(N3CCC(C)(N)CC3)nc21 [Cmpd 487] | ≥ 10 µM
CC1CNCC(Sc2n[nH]c3nc(N4CCC(C)(N)CC4)cnc23)C1 (centres unmarked) [Cmpd 490] | ≥ 10 µM
CC1(N)CCN(c2cnc3c(Nc4cccnc4Cl)n[nH]c3n2)CC1 [Compound 12, 6-(4-amino-4-methylpiperidin-1-yl)-N-(2-chloropyridin-3-yl)-1H-pyrazolo[3,4-b]pyrazin-3-amine] | 1 to 10 µM
CC1(N)CCN(c2cnc3c(N4CCCn5nccc54)n[nH]c3n2)CC1 [Compound 22] | < 1 µM
CC1(CN)CCN(c2cnc3c(N4CCCc5ncccc54)n[nH]c3n2)C1 (centres unmarked) [Compound 26, (1-(3-(3,4-dihydro-1,5-naphthyridin-1(2H)-yl)-1H-pyrazolo[3,4-b]pyrazin-6-yl)-3-methylpyrrolidin-3-yl)methanamine dihydrochloride] | < 1 µM
CC1(N)CCN(c2cnc3c(N4CCCc5ccncc54)n[nH]c3n2)CC1 [Compound 27] | ≥ 10 µM
CC1(N)CCN(c2cnc3c(N4CCCc5cnccc54)n[nH]c3n2)CC1 [Compound 30] | 1 to 10 µM
CC1(N)CCN(c2cnc3c(N4CCOc5ncccc54)n[nH]c3n2)CC1 [Compound 31] | < 1 µM
CC1(N)CCN(c2cnc3c(N4CCC(=O)c5ccccc54)n[nH]c3n2)CC1 [Compound 32] | < 1 µM
CC1CCc2ccccc2N1c1n[nH]c2nc(N3CCC(C)(N)CC3)cnc12 (centres unmarked) [Compound 34] | < 1 µM
C[C@H]1CCc2ccccc2N1c1n[nH]c2nc(N3CCC(C)(N)CC3)cnc12 [Compound 35] | < 1 µM
CC1(N)CCN(c2cnc3c(N4C(=O)CCc5ncccc54)n[nH]c3n2)CC1 [Compound 39, 1-(6-(4-amino-4-methylpiperidin-1-yl)-1H-pyrazolo[3,4-b]pyrazin-3-yl)-3,4-dihydro-1,5-naphthyridin-2(1H)-one] | 1 to 10 µM
CC1(N)CCN(c2cnc3c(N4CCCc5c4ccnc5N)n[nH]c3n2)CC1 [Compound 42, 1-(6-(4-amino-4-methylpiperidin-1-yl)-1H-pyrazolo[3,4-b]pyrazin-3-yl)-1,2,3,4-tetrahydro-1,6-naphthyridin-5-amine] | 1 to 10 µM
CC1(N)CCN(c2cnc3c(N4CCCn5c4cccc5=O)n[nH]c3n2)CC1 [Compound 43] | ≥ 10 µM
CC1(N)CCN(c2cnc3c(N4CCCC(c5ccccc5)C4)n[nH]c3n2)CC1 (centres unmarked) [Compound 47] | 1 to 10 µM
NC1CCCC12CCN(c1cnc3c(N4CCCc5ncccc54)n[nH]c3n1)CC2 (centres unmarked) [Compound 53, 8-(3-(3,4-dihydro-1,5-naphthyridin-1(2H)-yl)-1H-pyrazolo[3,4-b]pyrazin-6-yl)-8-azaspiro[4.5]decan-1-amine] | < 1 µM
CC1(N)CCN(c2cnc3c(N4CCCc5cc(C(N)=O)ccc54)n[nH]c3n2)CC1 [Compound 54, 1-(6-(4-amino-4-methylpiperidin-1-yl)-1H-pyrazolo[3,4-b]pyrazin-3-yl)-1,2,3,4-tetrahydroquinoline-6-carboxamide] | < 1 µM
NC1CCOC12CCN(c1cnc3c(N4CCCc5ncccc54)n[nH]c3n1)CC2 (centres unmarked) [Compound 55, 8-(3-(3,4-dihydro-1,5-naphthyridin-1(2H)-yl)-1H-pyrazolo[3,4-b]pyrazin-6-yl)-1-oxa-8-azaspiro[4.5]decan-4-amine] | < 1 µM
CC(=O)N1CCN(c2n[nH]c3nc(N4CCC(C)(N)CC4)cnc23)c2ccccc21 [Compound 56] | < 1 µM
CC1(N)CCN(c2cnc3c(N4CCCc5c(-c6ccccn6)cccc54)n[nH]c3n2)CC1 [Compound 59] | < 1 µM
CC1(N)CCN(c2cnc3c(N4CCCc5c(-c6cccnc6)cccc54)n[nH]c3n2)CC1 [Compound 60] | < 1 µM
Cn1cc(-c2cccc3c2CCCN3c2n[nH]c3nc(N4CCC(C)(N)CC4)cnc23)cn1 [Compound 61] | < 1 µM
Cn1cc(-c2ccc3c(n2)CCCN3c2n[nH]c3nc(N4CCC(C)(N)CC4)cnc23)cn1 [Compound 62] | < 1 µM
CC1(CN)CCN(c2cnc3c(N4CCCc5cc(C(F)(F)F)ccc54)n[nH]c3n2)CC1 [Compound 63] | < 1 µM

Source: patent US11591336B2 (Relay Therapeutics, Inc., priority 2017, dated 2023)
